Where two headings read alike, the source gives them in different places.
Tested on: HBV DNA in HepG2.2.15 cells
Experiment: HBV in vitro dot-blot hybridization test
Type: cell-based, Hepatitis B virus
Details: Hepatitis B virus
Experimental: • 1. Purpose of the test: • The content of HBV DNA in HepG2.2.15 cells was detected by dot-blot hybridization test to evaluate an inhibitory action of the compound on HBV with an EC50 value as an indicator. • 2. Experimental materials: • 2.1 Cell lines: HepG2.2.15 Cells • HepG2.2.15 cell culture media (DMEM/F12, Invitrogen-11330057; 10% serum Invitrogen-10099141; 100 units/mL Penicillin and 10 μg/mL Streptomycin, Invitrogen-15140122; 1% non-essential amino acid, Invitrogen-11140076; 2 mM L-GLUTAMINE, Invitrogen-25030081; 300 µg/ml Geneticin, Invitrogen-10131027 • 2.2 Reagents: • Trypsin (I Invitrogen-25300062) • DPBS (Hyclone-SH30028.01B) • DMSO (Sigma-D2650-100ML) • 96-well cell-culture plate (Corning-3599) • CO2 incubator (HERA-CELL-240) • 20×SSC (Bio-serve Co. Ltd) • Tris-HCl (Aldirch-154563-1KG) • NaOH (Sinopharm 10019718) • NaCl (Sinopharm 10019308) • Hybridization solution (Major BioTech Co. Ltd, IMMUNE GOLD-HYB-500) • DIG Wash and Block Buffer set (Roche-11585762001) • Anti-digoxigenin-AP, Fab fragments from sheep (Roche-11093274910) • 2.3 Materials and Instruments: • Positively-Charged Nylon Membrane (GE-RPN2250B) • Transfer Membrane Instrument (Bio-Rad, 170-6545) • Hybridization Oven (HL-2000 Hybrilinker) • 3. Testing steps and Methods: • 3.1 HepG2.2.15 cells (4×10^4 cells/well) were planted into a 96-well plate, and at 37° C., 5% CO2 cultured overnight. • 3.2 On Day 2, the compounds were diluted in totally 6 concentrations with a dilution gradient of five times. The compounds at different concentrations were added into the culture wells in duplicate. The final concentration of DMSO in the culture media was 1%. 1 μM GLS4 was used as 100% inhibition control; 1% DMSO as 0% inhibition control. • 3.3 On Day 5, replacing with the fresh culture media containing the compound was performed. • 3.4 On Day 8 and Day 9, the culture media in the culture wells was removed, and the cells were harvested for dot-blot hybridization. • The lysate was added into a culture well, and at 37° C. incubating for half an hour to disintegrate cells; the supernatant was obtained by centrifugation and transferred into a new microplate; a denaturation solution was added, after sufficient mixing the denatured sample was transferred and imprinted onto a Nylon membrane, the nucleic acid was fixed onto the membrane by UV cross-linking. • Pre-hybridization: the membrane was incubated at 60° C. in a hybridization solution for 1 hour. • Hybridization: heating the denatured digoxin-labelled HBV DNA probe and incubating at 60° C. overnight. • Membrane Washing: performing high strigency washing twice, low strigency washing for 3 times. • Blocking: incubating the membrane at room temperature in a blocking solution for 30-60 minutes. • Hybridization: diluting the Antibody Solution with the blocking solution, in which the membrane was placed and incubated at room temperature for 30-60 minutes. • Developing: washing the membrane in a Detection Buffer for 5 minutes, followed by adding a developing solution, pressing and exposing. • The photos was saved in tiff format, and a gray value of the dot was quantified with quantity one software. • 3.5 Data Analysis: • 3.5.1 The inhibition percentage was calculated: % Inh.=[1−(sample dot gray value−1 μM GLS4 dot gray value 1)/(DMSO control dot gray value−1 μM GLS4 dot gray value 1)]×100. • 3.5.2 Calculating EC50: the concentration of the compound for 50% inhibition of HBV (EC50) was calculated by using GraphPad Prism Software. • 4.

[1] = HepG2.2.15, dot-blot hybridization assay, read-out: Concentration for 50% inhibition of HBV (EC50)value
[2] = HepG2.2.15, summary list of target compounds, Examples 1-165 (same as Table 2), read-out: BIOACTIVITY (inhibitory actions on HBV DNA, EC50)

SMILES | EC50 [1] | EC50 [2]
CCOC(=O)C1=C2CN(C(C)=O)CCN2C(c2nccs2)=NC1c1ccc(F)cc1Br (racemic) [Example 86] | 500 to 1000 nM | 500 to 1000 nM
COC(=O)C1=C2C[C@H](NS(C)(=O)=O)CN2C(c2nccs2)=N[C@H]1c1cccc(F)c1Cl [Example 165] | < 100 nM | < 100 nM
CCOC(=O)C1=C2C[C@H](NC(=O)NC)CN2C(c2nccs2)=N[C@H]1c1ccc(F)cc1Br [Example 53] | < 100 nM | < 100 nM
COC(=O)C1=C2C[C@H](NS(=O)(=O)CCO)CN2C(c2nccs2)=N[C@H]1c1ccc(F)cc1Cl [Example 161] | < 100 nM | < 100 nM
CCOC(=O)C1=C2CCCC(=O)N2C(c2nccs2)=N[C@H]1c1ccc(F)cc1Br (racemic) [Example 108] | 1000 to 5000 nM | 1000 to 5000 nM
CC(C)OC(=O)C1=C2C[C@H](NS(C)(=O)=O)CN2C(c2nccs2)=N[C@H]1c1ccc(F)cc1Cl [Example 152] | 100 to 500 nM | 100 to 500 nM
CCOC(=O)C1=C2C[C@@H](CNC(C)=O)CN2C(c2nccs2)=N[C@H]1c1ccc(F)cc1Br [Example 119] | < 100 nM | < 100 nM
COC(=O)C1=C2C[C@H](NS(C)(=O)=O)CN2C(c2nccs2)=N[C@H]1c1ccc(F)c(Cl)c1 [Example 164] | 1000 to 5000 nM | 1000 to 5000 nM
CCOC(=O)C1=C2C[C@H](O)CN2C(c2nccs2)=N[C@@H]1c1ccc(F)cc1Cl [Example 35] | 1000 to 5000 nM | 1000 to 5000 nM
CCOC(=O)C1=C2C[C@@H](CN3CCC[C@H]3C(=O)OC)CN2C(c2nccs2)=N[C@H]1c1ccc(F)cc1Br [Example 21] | 1000 to 5000 nM | 1000 to 5000 nM
CCOC(=O)C1=C2C[C@H](N)CN2C(c2nccs2)=N[C@H]1c1ccc(F)cc1Br [Example 41] | 1000 to 5000 nM | 1000 to 5000 nM
CCOC(=O)C1=C2C[C@H](NS(=O)(=O)C3CC3)CN2C(c2nccs2)=N[C@H]1c1ccc(F)cc1Br [Example 62] | < 100 nM | < 100 nM
COC(=O)C1=C2C[C@H](NS(=O)(=O)C3CC3)CN2C(c2nccs2)=N[C@H]1c1ccc(F)cc1Cl [Example 156] | < 100 nM | < 100 nM
CCOC(=O)C1=C2C[C@H](CS(C)(=O)=O)CN2C(c2nccs2)=N[C@H]1c1ccc(F)cc1Br [Example 114] | 100 to 500 nM | 100 to 500 nM
CCOC(=O)C1=C2CC(C(=O)O)CN2C(c2nccs2)=NC1c1ccc(F)cc1Br (racemic) [Example 23] | 1000 to 5000 nM | 1000 to 5000 nM
CCOC(=O)C1=C2CN(S(C)(=O)=O)CCN2C(c2nccs2)=NC1c1ccc(F)cc1Br (racemic) [Example 87] | 500 to 1000 nM | 500 to 1000 nM
CCOC(=O)C1=C2C[C@@H](NC(=O)OC)CN2C(c2nccs2)=N[C@H]1c1ccc(F)cc1Br [Example 43] | 100 to 500 nM | 100 to 500 nM
CCOC(=O)C1=C2C[C@@H](C(N)=O)CN2C(c2nccs2)=N[C@H]1c1ccc(F)cc1Cl [Example 30] | 100 to 500 nM | 100 to 500 nM
CCOC(=O)C1=C2CCCN2C(c2nccs2)=NC1c1ccc(F)cc1Cl (racemic) [Example 1] | 100 to 500 nM | 100 to 500 nM
CCOC(=O)C1=C2C[C@H](NC(C)=O)CN2C(c2nccs2)=N[C@H]1c1ccc(F)cc1Br [Example 50] | 1000 to 5000 nM | 1000 to 5000 nM
CCOC(=O)C1=C2CN(C(=O)OCC)CCN2C(c2nccs2)=NC1c1ccc(F)cc1Br (stereo not shown) [Example 82] | 100 to 500 nM | 100 to 500 nM
CCOC(=O)C1=C2C[C@H](NS(=O)(=O)/C=C/F)CN2C(c2nccs2)=N[C@H]1c1ccc(F)cc1Cl [Example 129] | < 100 nM | < 100 nM

SMILES | EC50 [1] | EC50 [2]
CCOC(=O)C1=C2C[C@H](CNS(=O)(=O)C3CC3)CN2C(c2nccs2)=N[C@H]1c1ccc(F)cc1Br [Example 121] | < 100 nM | < 100 nM
CCOC(=O)C1=C2C[C@H](NC(=O)OC(C)C)CN2C(c2nccs2)=N[C@H]1c1ccc(F)cc1Br [Example 47] | < 100 nM | < 100 nM
CCOC(=O)C1=C2C[C@@H](NS(=O)(=O)C(F)F)CN2C(c2nccs2)=N[C@H]1c1ccc(F)cc1Br [Example 123] | < 100 nM | < 100 nM
CCOC(=O)C1=C2CC(NS(=O)(=O)NC)CN2C(c2nccs2)=N[C@H]1c1ccc(F)cc1Br (mixture of isomers) [Example 54] | < 100 nM | < 100 nM
CCOC(=O)C1=C2CN(C(=O)C(C)C)CCN2C(c2nccs2)=N[C@H]1c1ccc(F)cc1Br [Example 92] | < 100 nM | < 100 nM
CCOC(=O)C1=C2CC(NS(C)(=O)=O)CN2C(c2nccs2)=N[C@H]1c1ccc(F)cc1Br (stereo partly shown) [Example 58] | < 100 nM | < 100 nM
CCS(=O)(=O)N[C@H]1CC2=C(C(=O)OC)[C@H](c3ccc(F)cc3Cl)N=C(c3nccs3)N2C1 [Example 158] | < 100 nM | < 100 nM
CCOC(=O)C1=C2C[C@H](NS(C)(=O)=O)CN2C(c2nccs2)=N[C@H]1c1ccc(F)cc1F [Example 138] | < 100 nM | < 100 nM
CCOC(=O)C1=C2C[C@@H](CO)CN2C(c2nccs2)=NC1c1ccc(F)cc1Br (mixture of isomers) [Example 8] | 100 to 500 nM | 100 to 500 nM
CCOC(=O)C1=C2[C@@H](C(N)=O)CCN2C(c2nccs2)=N[C@H]1c1ccc(F)cc1Cl (racemic) [Example 3] | 100 to 500 nM | 100 to 500 nM
CCOC(=O)C1=C2C[C@@H](C(N)=O)CN2C(c2nccs2)=NC1c1ccc(F)cc1Br (mixture of isomers) [Example 28] | 100 to 500 nM | 100 to 500 nM
CCOC(=O)C1=C2CCCN2C(c2nccs2)=NC1c1cccc(F)c1Cl (racemic) [Example 70] | 100 to 500 nM | 100 to 500 nM
CCOC(=O)C1=C2C[C@H](NS(C)(=O)=O)CN2C(c2nccs2)=N[C@@H]1c1ccc(F)cc1Cl [Example 141] | 500 to 1000 nM | 500 to 1000 nM
CCOC(=O)C1=C2COC(=O)N2C(c2nccs2)=NC1c1ccc(F)cc1Br (racemic) [Example 67] | 100 to 500 nM | 100 to 500 nM
CCOC(=O)C1=C2CC(NC(=O)NC)CN2C(c2nccs2)=N[C@H]1c1ccc(F)cc1Br (mixture of isomers) [Example 51] | 100 to 500 nM | 100 to 500 nM
CCOC(=O)C1=C2CN(Cc3ccc(OC)cc3)S(=O)(=O)CN2C(c2nccs2)=N[C@H]1c1ccc(F)cc1Br [Example 134] | 1000 to 5000 nM | 1000 to 5000 nM
CCOC(=O)C1=C2CN(CC(=O)OC)CCN2C(c2nccs2)=N[C@H]1c1ccc(F)cc1Br [Example 98] | 1000 to 5000 nM | 1000 to 5000 nM
CCOC(=O)C1=C2CN(Cc3ccc(OC)cc3)C[C@@H](C(=O)OC)N2C(c2nccs2)=N[C@H]1c1ccc(F)cc1Br [Example 115] | 100 to 500 nM | 100 to 500 nM
CCOC(=O)C1=C2C[C@H](NS(C)(=O)=O)CN2C(c2nccs2)=N[C@H]1c1ccc(Cl)cc1F [Example 150] | 100 to 500 nM | 100 to 500 nM
CCOC(=O)C1=C2CC(NS(=O)(=O)C3CC3)CN2C(c2nccs2)=N[C@H]1c1ccc(F)cc1Br (mixture of isomers) [Example 60] | < 100 nM | < 100 nM
CCOC(=O)C1=C2C(N(C)CCO)CCN2C(c2nccs2)=NC1c1ccc(F)cc1Cl (racemic) [Example 2] | 1000 to 5000 nM | 1000 to 5000 nM
CCOC(=O)C1=C2C[C@H](N[S+]([O-])C(C)(C)C)CN2C(c2nccs2)=N[C@H]1c1ccc(F)cc1Cl (stereo partly shown) [Example 140] | 500 to 1000 nM | 500 to 1000 nM

Source: patent US9938301B2, “Dihydropyrimido fused ring derivative as HBV inhibitor” (QILU PHARMACEUTICAL CO., LTD., priority 2014, dated 2018)
